Patent US11389465B2, “Phosphorylated hexaacyl disaccharides (PHADs) for treating or preventing infections” (VANDERBILT UNIVERSITY, priority 2017, dated 2022)
Entries after “also recorded” stand apart in the source; their conditions may differ.

Assays:
P. aeruginosa = conditions: head to head with MPLA, 20 μg/mouse
[1] = system: Gram negative and Gram positive bacterial infections; conditions: mice primed with LPS; cited from earlier work

Row | Compound | efficacy at augmenting host resistance to bacterial infection compared with MPLA (P. aeruginosa) | resistance to infection of primed mice [1]
1 | CCCCCCCCCCCCCC(=O)OC(CCCCCCCCCCC)CC(=O)NC1C(O)OC(COC2OC(CO)C(OP(=O)(O)O)C(OC(=O)CC(CCCCCCCCCCC)OC(=O)CCCCCCCCCCCCC)C2NC(=O)CC(CCCCCCCCCCC)OC(=O)CCCCCCCCCCCCC)C(O)C1O.N (stereo not shown) [3D(6-acyl) PHAD, 3-D (6-acyl) phosphorylated hexaacyl disaccharide] | as effective as MPLA | 
2 | CCCCCCCCCCCCCC(=O)OC(CCCCCCCCCCC)CC(=O)NC1C(OCC2OC(O)C(NC(=O)CC(O)CCCCCCCCCCC)C(O)C2O)OC(CO)C(OP(=O)(O)O)C1OC(=O)CC(CCCCCCCCCCC)OC(=O)CCCCCCCCCCCCC.N (stereo not shown) [3D-PHAD, 3-deacyl phosphorylated hexaacyl disaccharide] | as effective as MPLA; also recorded: as efficacious as MPLA | 
3 | CCCCCCCCCCCCCC(=O)OC(CCCCCCCCCCC)CC(=O)NC1C(OCC2OC(O)C(NC(=O)CC(O)CCCCCCCCCCC)C(OC(=O)CC(O)CCCCCCCCCCC)C2O)OC(CO)C(OP(=O)(O)O)C1OC(=O)CC(CCCCCCCCCCC)OC(=O)CCCCCCCCCCCCC.N (stereo not shown) [PHAD, phosphorylated hexaacyl disaccharide] | as effective as MPLA | 
4 | Lipopolysaccharide [LPS] |  | improved resistance to Gram negative and Gram positive bacterial infections
